Laboratory results reported in patent publication US10479789B2, “Pyrido[1,2-A]pyrimidone analog, crystal form thereof, intermediate thereof and preparation method therefor” (Chia Tai Tianqing Pharmaceutical Group Co., Ltd., priority 2015, dated 2019).

Assays:
[1] = Solid state stability of crystalline Form IX under high temperature, high humidity and strong light; format: physicochemical
Description: About 10 mg of crystalline Form IX of Compound 1 was weighed and placed on a bottom of a glass sample bottle to form a thin layer. For the samples placed under the conditions of 60° C. and room temperature/92.5% RH, the top of the bottles was covered with aluminum foil, and several holes were made in aluminum foil, which is ensure that the samples were fully exposed to the air in the environment; for the samples placed under strong light (5 Klx), the bottles were sealed with a screw cap. Another sample of 15 mg of crystalline Form IX was taken and placed according to the method as described above for detecting the crystalline form of the sample. The samples placed under different conditions were sampled and detected on day 5 and day 10, and the detection results were compared with the initial detection results on day 0.

[2] = Stability of crystalline Form IX of Compound 1 in different solvents (XRPD after stirring); format: physicochemical; conditions: stirred at 40° C.; for Results (crystalline state by XRPD): 2 days
Description: Several samples of crystalline Form IX of Compound 1 in a suitable amount were taken, respectively added to 0.3-0.4 mL of a single solvent or a mixed solvent as shown in the following table, and stirred at 40° C. After stirring for 2 days, the samples were centrifuged. Solid in the samples was collected and its crystalline state was detected by XRPD.

[3] = High temperature 60° C. (opened), day 5
[4] = High temperature 60° C. (opened), day 5 and day 10
[5] = High temperature 60° C. (opened), day 10
[6] = Light 5KIx (closed), day 5 and day 10
[7] = Room temperature/92.5% RH (opened), day 5
[8] = Room temperature/92.5% RH (opened), day 5 and day 10
[9] = Room temperature/92.5% RH (opened), day 10

## COc1ncc(-c2ccc3ncc(OCCN(C)C)c(=O)n3c2)cc1NS(=O)(=O)c1ccc(F)cc1Cl [crystalline Form IX of Compound 1]
[1]; [3]
  Content (%): 100.64%
  Total impurities (%): 0.32%
[1]; [4]
  Appearance: White
  Crystalline Form: crystalline
[1]; [5]
  Content (%): 100.55%
  Total impurities (%): 0.33%
[1]; Light 5KIx (closed), day 5
  Content (%): 100.43%
  Total impurities (%): 0.31%
[1]; [6]
  Appearance: White
  Crystalline Form: crystalline
[1]; Light 5KIx (closed), day 10
  Content (%): 101.10%
  Total impurities (%): 0.32%
[1]; [7]
  Content (%): 101.05%
  Total impurities (%): 0.32%
[1]; [8]
  Appearance: White
  Crystalline Form: crystalline
[1]; [9]
  Content (%): 101.16%
  Total impurities (%): 0.32%
[1]; day 0 (initial)
  Appearance: White
  Content (%): 101.02%
  Crystalline Form: crystalline
  Total impurities (%): 0.32%
[2]; acetone
  Appearance (2 days): suspension
  Results (crystalline state by XRPD): crystalline
[2]; acetone-water (1:2)
  Appearance (2 days): suspension
  Results (crystalline state by XRPD): crystalline
[2]; acetonitrile
  Appearance (2 days): suspension
  Results (crystalline state by XRPD): crystalline
[2]; ethanol
  Appearance (2 days): suspension
  Results (crystalline state by XRPD): crystalline
[2]; ethanol-water (3:1)
  Appearance (2 days): suspension
  Results (crystalline state by XRPD): crystalline
[2]; ethyl acetate
  Appearance (2 days): suspension
  Results (crystalline state by XRPD): crystalline
[2]; isopropanol
  Appearance (2 days): suspension
  Results (crystalline state by XRPD): crystalline
[2]; isopropanol-water (1:1)
  Appearance (2 days): suspension
  Results (crystalline state by XRPD): crystalline
[2]; methanol
  Appearance (2 days): suspension
  Results (crystalline state by XRPD): crystalline
[2]; methanol-water (3:1)
  Appearance (2 days): suspension
  Results (crystalline state by XRPD): crystalline
[2]; tetrahydrofuran
  Appearance (2 days): suspension
  Results (crystalline state by XRPD): crystalline
